Reference: article PMC12362587, “Untargeted Diversity-Oriented Synthesis for the Discovery of New Antitumor Agents: An Integrated Approach of Inverse Virtual Screening, Bioinformatics, and Omics for Target Deconvolution” (Journal of Medicinal Chemistry, 2025)

Assays:
A1 Human Adenosine GPCR = molecular target: T1, A1 Human Adenosine GPCR (Homo sapiens, UniProt P30542); assay: Binding Antagonist Radioligand LeadHunter Assay; details: Eurofins, read-out: EC50 or IC50, A1 Human Adenosine GPCR, antagonist radioligand
T1 construct: Eurofins (contract assay)
T1 sequence (P30542 1-326): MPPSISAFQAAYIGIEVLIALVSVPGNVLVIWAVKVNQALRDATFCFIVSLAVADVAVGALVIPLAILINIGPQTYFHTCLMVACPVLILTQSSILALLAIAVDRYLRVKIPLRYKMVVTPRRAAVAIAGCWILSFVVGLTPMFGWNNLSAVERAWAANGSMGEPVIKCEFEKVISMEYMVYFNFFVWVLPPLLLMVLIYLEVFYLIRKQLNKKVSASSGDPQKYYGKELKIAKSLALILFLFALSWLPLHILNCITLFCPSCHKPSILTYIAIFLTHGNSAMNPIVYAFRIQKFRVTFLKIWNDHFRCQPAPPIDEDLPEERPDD
Description: For displacement assays on G-protein coupled receptor 55 (GPR55), Vasopressin V2 receptor (V2R), Adenosine A1 receptor (A1AR), Fibroblast growth factor receptor 1 (FGFR1), Vascular endothelial growth factor receptor 2 (VEGFR2), Platelet-derived growth factor receptor beta (PDGFRB), Vascular endothelial growth factor receptor 1 (VEGFR1), Thromboxane Synthase (TXS) and Phosphodiesterase 10A (PDE10A), we commissioned the Eurofins company which employed its specific experimental methods, accessible at the link: https://www.eurofins.com/.

human CB2R = human CB2R (Homo sapiens, UniProt P34972); assay: cAMP Hunter assay, functional activity at CB2R; format: cell-based; set-up: host or cells: CHO-K1; details: CHO cells expressing human CB2R, alone and with JWH133
Chain of human CB2R (P34972 whole entry): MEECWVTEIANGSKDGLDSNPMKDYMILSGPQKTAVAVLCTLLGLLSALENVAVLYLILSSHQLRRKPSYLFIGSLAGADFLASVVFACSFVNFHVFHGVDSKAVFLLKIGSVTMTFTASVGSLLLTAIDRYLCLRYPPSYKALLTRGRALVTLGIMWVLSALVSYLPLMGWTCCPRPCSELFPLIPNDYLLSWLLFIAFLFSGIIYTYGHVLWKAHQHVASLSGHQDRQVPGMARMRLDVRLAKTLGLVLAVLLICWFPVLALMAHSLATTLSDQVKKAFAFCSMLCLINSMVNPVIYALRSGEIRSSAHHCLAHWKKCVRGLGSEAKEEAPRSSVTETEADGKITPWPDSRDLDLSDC
Experimental: The curves show the effect of increasing concentrations of the compound on NKH-477-induced cAMP levels in stable CHO cells expressing the human CB2R. The effect of JWH-133 is reported as a reference compound. Data are reported as means ± standard error of three independent experiments conducted in triplicate and normalized considering the NKH-477 stimulus alone as 100% of the response as indicated in the experimental session. EC50 was determined by GraphPad Prism 9 as the concentration that provokes the response halfway between the baseline (bottom) and maximum response (top) of the fitted dose–response.
The functional activity at CB2Rs was evaluated using the cAMP Hunter assay with an enzyme fragment complementation chemiluminescent detection kit, as previously reported. Following the manufacturer’s instructions, this assay measured Gi-coupled cAMP modulation in CB2R-expressing cell lines (DiscoveRx, Fremont, CA). Briefly, CHO-K1 cells overexpressing the human CB2Rs were plated in a 96-well plate at a density of 10,000 cells per well and incubated overnight at 37 °C in 5% CO2. […] Following stimulation, the cells were lysed, and cAMP levels were detected according to the manufacturer’s protocol. Luminescence was measured using the GloMax Multi-Detection System (Promega, Italy). Results were expressed as mean ± SEM and derived from three independent experiments conducted in triplicate. […]

Structure (SMILES)	IC50 (A1 Human Adenosine GPCR) [µM]	functional activity at CB2R (NKH-477-induced cAMP levels) (human CB2R)
CC(C)C[C@H]1C(=O)N(Cc2ccc(C(F)(F)F)cc2)c2ccccc2C(=O)N1Cc1ccc(C(F)(F)F)cc1 [Compound 31, (S)-3-Isobutyl-1,4-bis(4-(trifluoromethyl)benzyl)-3,4-dihydro-1H-benzo[e][1,4]diazepine-2,5-dione]	≥ 30	–
CC(C)C[C@@H](C(=O)OCc1ccccc1)N1Cc2ccccc2NC1=O [Compound 63, Benzyl (S)-4-Methyl-2-(2-oxo-1,4-dihydroquinazolin-3(2H)-yl)pentanoate]	≥ 30	functional inverse agonist activity
